Data from publication PMC5218480 (PLoS ONE, 2017).

Tested on: MV-4-11 cells
Assay: Gene expression microarray analysis (Affymetrix PrimeView) and GSEA
Format: cell-based, human
Set-up: RFU PODN (11730768_x_at) / Fold change /veh PODN (11730768_x_at) / RFU LINC00158 (11744669_a_at) / Fold change /veh LINC00158 (11744669_a_at) / RFU DUSP10 (11751237_a_at) / Fold change /veh DUSP10 (11751237_a_at) / RFU ID3 (11757404_x_at) / Fold change /veh ID3 (11757404_x_at) / RFU PLEKHG5 (11737974_s_at) / Fold change /veh PLEKHG5 (11737974_s_at) / RFU LRRC4B (11730491_at) / Fold change /veh LRRC4B (11730491_at) / RFU GIMAP4 (11747438_a_at) / Fold change /veh GIMAP4 (11747438_a_at) / RFU KRT8 (11758183_x_at) / Fold change /veh KRT8 (11758183_x_at) / RFU CNN1 (11734310_a_at) / Fold change /veh CNN1 (11734310_a_at) / RFU VPS37D (11726825_at) / Fold change /veh VPS37D (11726825_at) / RFU C10orf10 (11716522_x_at) / Fold change /veh C10orf10 (11716522_x_at) / RFU KIR2DL2 /// KIR2DL4 /// KIR2DL5A /// KIR2DL5B /// KIR2DS1 /// KIR2DS2 /// KIR2DS3 /// KIR2DS4 /// KIR3DL3 /// KIR3DL3 /// KIR3DS1 (11738374_at) / Fold change /veh KIR2DL2 /// KIR2DL4 /// KIR2DL5A /// KIR2DL5B /// KIR2DS1 /// KIR2DS2 /// KIR2DS3 /// KIR2DS4 /// KIR3DL3 /// KIR3DL3 /// KIR3DS1 (11738374_at) / RFU C1QL1 (11718748_at) / Fold change /veh C1QL1 (11718748_at) / RFU TMPRSS4 (11747572_a_at) / Fold change /veh TMPRSS4 (11747572_a_at) / RFU HAMP (11756126_x_at) / Fold change /veh HAMP (11756126_x_at) / RFU RNFT2 (11725882_a_at) / Fold change /veh RNFT2 (11725882_a_at) / RFU NR4A2 (11747474_a_at) / Fold change /veh NR4A2 (11747474_a_at) / RFU ABCC12 (11746883_a_at) / Fold change /veh ABCC12 (11746883_a_at) / RFU TMEM136 (11760407_x_at) / Fold change /veh TMEM136 (11760407_x_at) / RFU CLDN22 /// WWC2 (11732394_at) / Fold change /veh CLDN22 /// WWC2 (11732394_at) / RFU HLA-DPB1 (11760878_x_at) / Fold change /veh HLA-DPB1 (11760878_x_at) / RFU SPINT1 (11716480_a_at) / Fold change /veh SPINT1 (11716480_a_at) / RFU GAP43 (11754022_s_at) / Fold change /veh GAP43 (11754022_s_at) / RFU A4GNT (11735810_at) / Fold change /veh A4GNT (11735810_at) / RFU PRB3 (11715151_x_at) / Fold change /veh PRB3 (11715151_x_at) / RFU TUBB4B (11761932_at) / Fold change /veh TUBB4B (11761932_at) / RFU CAPN14 (11732068_a_at) / Fold change /veh CAPN14 (11732068_a_at) / RFU TMCC2 (11721928_a_at) / Fold change /veh TMCC2 (11721928_a_at) / RFU IRGQ (11745062_a_at) / Fold change /veh IRGQ (11745062_a_at) / RFU FAM174B (11720279_a_at) / Fold change /veh FAM174B (11720279_a_at) / RFU TMPRSS4 (11748680_a_at) / Fold change /veh TMPRSS4 (11748680_a_at) / RFU FAM212B (11763350_a_at) / Fold change /veh FAM212B (11763350_a_at) / RFU PLEKHG5 (11743358_a_at) / Fold change /veh PLEKHG5 (11743358_a_at) / RFU ZSCAN30 (11745921_a_at) / Fold change /veh ZSCAN30 (11745921_a_at) / RFU CMKLR1 (11741424_a_at) / Fold change /veh CMKLR1 (11741424_a_at) / RFU LOC101060620 /// MAPK8IP1 (11723275_at) / Fold change /veh LOC101060620 /// MAPK8IP1 (11723275_at) / RFU SPTSSB (11747773_x_at) / Fold change /veh SPTSSB (11747773_x_at) / RFU PRSS12 (11739890_at) / Fold change /veh PRSS12 (11739890_at) / RFU BIN1 (11741810_x_at) / Fold change /veh BIN1 (11741810_x_at) / RFU WNT11 (11732464_a_at) / Fold change /veh WNT11 (11732464_a_at) / RFU C10orf10 (11716521_a_at) / Fold change /veh C10orf10 (11716521_a_at) / RFU C5orf56 (11738089_at) / Fold change /veh C5orf56 (11738089_at) / RFU CYB561 (11721691_x_at) / Fold change /veh CYB561 (11721691_x_at) / RFU ANKRD19P (11752326_a_at) / Fold change /veh ANKRD19P (11752326_a_at) / RFU OR2T12 /// OR2T33 /// OR2T8 (11738714_s_at) / Fold change /veh OR2T12 /// OR2T33 /// OR2T8 (11738714_s_at) / RFU VCAN (11748164_a_at) / Fold change /veh VCAN (11748164_a_at) / RFU JSRP1 (11732532_at) / Fold change /veh JSRP1 (11732532_at) / RFU KRTAP10-11 (11738290_x_at) / Fold change /veh KRTAP10-11 (11738290_x_at) / RFU MYO3A (11730013_a_at) / Fold change /veh MYO3A (11730013_a_at) / RFU EBF3 (11725865_a_at) / Fold change /veh EBF3 (11725865_a_at) / RFU CAMK2N1 (11719241_x_at) / Fold change /veh CAMK2N1 (11719241_x_at) / RFU C5orf56 (11738088_a_at) / Fold change /veh C5orf56 (11738088_a_at) / RFU OLFML3 (11715873_a_at) / Fold change /veh OLFML3 (11715873_a_at) / RFU LOC100653217 /// NTM (11731650_a_at) / Fold change /veh LOC100653217 /// NTM (11731650_a_at) / RFU MAPK11 (11762145_a_at) / Fold change /veh MAPK11 (11762145_a_at) / RFU FIZ1 (11724087_x_at) / Fold change /veh FIZ1 (11724087_x_at) / RFU OASL (11726364_x_at) / Fold change /veh OASL (11726364_x_at) / RFU SOX15 (11748057_x_at) / Fold change /veh SOX15 (11748057_x_at) / RFU CD79A (11719716_a_at) / Fold change /veh CD79A (11719716_a_at) / RFU HIST1H1D (11736915_at) / Fold change /veh HIST1H1D (11736915_at) / RFU CASKIN2 (11723855_a_at) / Fold change /veh CASKIN2 (11723855_a_at) / RFU LOC730098 (11760151_x_at) / Fold change /veh LOC730098 (11760151_x_at) / RFU OR4N2 (11742367_at) / Fold change /veh OR4N2 (11742367_at) / RFU PRRT2 (11749266_a_at) / Fold change /veh PRRT2 (11749266_a_at) / RFU SNX32 (11753110_a_at) / Fold change /veh SNX32 (11753110_a_at) / RFU CDHR5 (11726645_a_at) / Fold change /veh CDHR5 (11726645_a_at) / RFU RCAN1 (11760418_a_at) / Fold change /veh RCAN1 (11760418_a_at) / RFU FAM167A (11723789_a_at) / Fold change /veh FAM167A (11723789_a_at) / RFU FAM26E (11764081_at) / Fold change /veh FAM26E (11764081_at) / RFU ISYNA1 (11749810_s_at) / Fold change /veh ISYNA1 (11749810_s_at) / RFU ACY1 (11761880_at) / Fold change /veh ACY1 (11761880_at) / RFU 11764098_at / Fold change /veh 11764098_at / RFU SAMD14 (11745864_x_at) / Fold change /veh SAMD14 (11745864_x_at) / RFU NPB (11741838_a_at) / Fold change /veh NPB (11741838_a_at) / RFU TMPRSS6 (11731388_a_at) / Fold change /veh TMPRSS6 (11731388_a_at) / RFU KRTAP10-2 (11738614_at) / Fold change /veh KRTAP10-2 (11738614_at) / RFU ARHGAP8 /// PRR5-ARHGAP8 (11727945_x_at) / Fold change /veh ARHGAP8 /// PRR5-ARHGAP8 (11727945_x_at) / RFU KRTAP5-7 /// NADSYN1 (11734609_at) / Fold change /veh KRTAP5-7 /// NADSYN1 (11734609_at) / RFU RASL12 (11751679_a_at) / Fold change /veh RASL12 (11751679_a_at) / RFU CDKN2B (11736163_a_at) / Fold change /veh CDKN2B (11736163_a_at) / RFU PRF1 (11729649_at) / Fold change /veh PRF1 (11729649_at) / RFU, ZNF638 /// ZNF638-IT1 / Fold change vs veh, ZNF638 /// ZNF638-IT1 / RFU, PANK3 / Fold change vs veh, PANK3 / RFU, SH3YL1 / Fold change vs veh, SH3YL1 / RFU, ZEB2 / Fold change vs veh, ZEB2 / RFU, NRIP1 / Fold change vs veh, NRIP1 / RFU, PTTG1IP / Fold change vs veh, PTTG1IP / RFU, CAPN2 / Fold change vs veh, CAPN2 / RFU, MED14 / Fold change vs veh, MED14 / RFU, SNORA58 / Fold change vs veh, SNORA58 / RFU, C1orf63 / Fold change vs veh, C1orf63 / RFU, LRRFIP1 / Fold change vs veh, LRRFIP1 / RFU, NDUFAF7 / Fold change vs veh, NDUFAF7 / RFU, SLC12A2 / Fold change vs veh, SLC12A2 / RFU, IBTK / Fold change vs veh, IBTK / RFU, ESF1 / Fold change vs veh, ESF1 / Fold change vs veh, TMEM50B / RFU, TAOK1 / Fold change vs veh, TAOK1 / RFU, ACBD3 / Fold change vs veh, ACBD3 / RFU, TMA16 / Fold change vs veh, TMA16 / RFU, RWDD3 / Fold change vs veh, RWDD3 / RFU, BCAT1 / Fold change vs veh, BCAT1 / RFU, EDEM3 / Fold change vs veh, EDEM3 / RFU, TMEM33 / Fold change vs veh, TMEM33 / RFU, WDR75 / Fold change vs veh, WDR75 / RFU, AHCTF1 / Fold change vs veh, AHCTF1 / RFU, TFRC / Fold change vs veh, TFRC / RFU, ZDHHC17 / Fold change vs veh, ZDHHC17 / RFU, NOM1 / Fold change vs veh, NOM1 / RFU, ARL8B / Fold change vs veh, ARL8B / RFU, ZBTB11 / Fold change vs veh, ZBTB11 / RFU, TAMM41 / Fold change vs veh, TAMM41 / RFU, KIAA1704 /// LOC100996395 / Fold change vs veh, KIAA1704 /// LOC100996395 / RFU, ING1 / Fold change vs veh, ING1 / RFU, TRMT61B / Fold change vs veh, TRMT61B / RFU, FUBP3 / Fold change vs veh, FUBP3 / RFU, TP53 / Fold change vs veh, TP53 / RFU, TNKS2 / Fold change vs veh, TNKS2 / RFU, ZFP14 / Fold change vs veh, ZFP14 / RFU, ACTR2 / Fold change vs veh, ACTR2 / RFU, PPP3R1 / Fold change vs veh, PPP3R1 / RFU, PIK3R1 / Fold change vs veh, PIK3R1 / RFU, HNRNPA1 / Fold change vs veh, HNRNPA1 / RFU, RNF170 / Fold change vs veh, RNF170 / RFU, ZNF28 / Fold change vs veh, ZNF28 / RFU, RNGTT / Fold change vs veh, RNGTT / RFU, OGT / Fold change vs veh, OGT / RFU, BRD1 / Fold change vs veh, BRD1 / RFU, MARS / Fold change vs veh, MARS / RFU, ZNF655 / Fold change vs veh, ZNF655 / RFU, FAHD1 / Fold change vs veh, FAHD1 / RFU, BDP1 / Fold change vs veh, BDP1 / RFU, LRRCC1 / Fold change vs veh, LRRCC1 / RFU, ARID1A / Fold change vs veh, ARID1A / RFU, ZNF146 / Fold change vs veh, ZNF146 / RFU, ZNF330 / Fold change vs veh, ZNF330 / RFU, GPN3 / Fold change vs veh, GPN3 / RFU, C9orf123 / Fold change vs veh, C9orf123 / RFU, N4BP2L2 / Fold change vs veh, N4BP2L2 / RFU, ARFIP1 / Fold change vs veh, ARFIP1 / RFU, FAM179B / Fold change vs veh, FAM179B / RFU, BCL10 / Fold change vs veh, BCL10 / RFU, UHRF1BP1L / Fold change vs veh, UHRF1BP1L / RFU, BET1 / Fold change vs veh, BET1 / RFU, CNOT2 / Fold change vs veh, CNOT2 / RFU, ZNF268 / Fold change vs veh, ZNF268 / Fold change vs veh, ZNF507 / RFU, DGCR2 / Fold change vs veh, DGCR2 / RFU, WDSUB1 / Fold change vs veh, WDSUB1 / Fold change vs veh, HSP90B1 /// MIR3652 / RFU, ADSS / Fold change vs veh, ADSS / RFU, GK / Fold change vs veh, GK / RFU, ZNF148 / Fold change vs veh, ZNF148 / RFU, TAF9 / Fold change vs veh, TAF9 / RFU, SLC1A5 / Fold change vs veh, SLC1A5 / RFU, SLMO2 / Fold change vs veh, SLMO2 / RFU, ABCC4 / Fold change vs veh, ABCC4 / RFU, LOC101060439 /// RAP1B / Fold change vs veh, LOC101060439 /// RAP1B / RFU, RFX7 / Fold change vs veh, RFX7 / RFU, GTPBP10 / Fold change vs veh, GTPBP10 / RFU, CNEP1R1 / Fold change vs veh, CNEP1R1 / RFU, BIVM-ERCC5 /// ERCC5 / Fold change vs veh, BIVM-ERCC5 /// ERCC5 / RFU, ILF3 / Fold change vs veh, ILF3 / RFU 11762660_at / Fold change /veh 11762660_at / RFU VCAN (11757783_s_at) / Fold change /veh VCAN (11757783_s_at) / RFU DDX43 (11728927_at) / Fold change /veh DDX43 (11728927_at) / RFU KRT8 (11758188_x_at) / Fold change /veh KRT8 (11758188_x_at) / RFU NKD1 (11759106_at) / Fold change /veh NKD1 (11759106_at) / RFU SRD5A1 (11742802_a_at) / Fold change /veh SRD5A1 (11742802_a_at) / RFU TPSAB1 /// TPSB2 (11721975_s_at) / Fold change /veh TPSAB1 /// TPSB2 (11721975_s_at) / RFU GSTM3 (11746129_a_at) / Fold change /veh GSTM3 (11746129_a_at) / RFU IL23R (11737362_x_at) / Fold change /veh IL23R (11737362_x_at) / RFU TMEM51 (11727254_a_at) / Fold change /veh TMEM51 (11727254_a_at) / RFU PIWIL2 (11732686_x_at) / Fold change /veh PIWIL2 (11732686_x_at) / RFU ORM1 (11744905_x_at) / Fold change /veh ORM1 (11744905_x_at) / RFU CCDC152 (11743942_at) / Fold change /veh CCDC152 (11743942_at) / RFU ECM1 (11717891_a_at) / Fold change /veh ECM1 (11717891_a_at) / RFU IL23R (11748794_a_at) / Fold change /veh IL23R (11748794_a_at) / RFU TNFAIP8L3 (11732012_x_at) / Fold change /veh TNFAIP8L3 (11732012_x_at) / RFU MBOAT4 (11741988_at) / Fold change /veh MBOAT4 (11741988_at) / RFU 11764193_at / Fold change /veh 11764193_at / RFU TMEM53 (11763286_at) / Fold change /veh TMEM53 (11763286_at) / RFU MAGEB2 (11727129_at) / Fold change /veh MAGEB2 (11727129_at) / RFU TMEM200A (11744735_a_at) / Fold change /veh TMEM200A (11744735_a_at) / RFU CCDC152 (11751479_a_at) / Fold change /veh CCDC152 (11751479_a_at) / RFU FAM211A (11726209_a_at) / Fold change /veh FAM211A (11726209_a_at) / RFU RGS16 (11746705_a_at) / Fold change /veh RGS16 (11746705_a_at) / RFU VCAN (11755009_s_at) / Fold change /veh VCAN (11755009_s_at) / RFU RHOB (11743442_s_at) / Fold change /veh RHOB (11743442_s_at) / RFU RGS16 (11720943_a_at) / Fold change /veh RGS16 (11720943_a_at) / RFU RGS16 (11720944_at) / Fold change /veh RGS16 (11720944_at) / RFU, VPS4B / Fold change vs veh, VPS4B / RFU, CREB1 / Fold change vs veh, CREB1 / RFU, DNAJC13 / Fold change vs veh, DNAJC13 / RFU, GNAQ / Fold change vs veh, GNAQ / RFU, CDK5R1 / Fold change vs veh, CDK5R1 / RFU, ZRANB3 / Fold change vs veh, ZRANB3 / RFU, CUL4A / Fold change vs veh, CUL4A / RFU, CCNY / Fold change vs veh, CCNY / RFU, UFL1 / Fold change vs veh, UFL1 / RFU, COG3 / Fold change vs veh, COG3 / RFU, DIAPH2 / Fold change vs veh, DIAPH2 / RFU, SKA2 / Fold change vs veh, SKA2 / RFU, AFF3 / Fold change vs veh, AFF3 / RFU, LMF1 / Fold change vs veh, LMF1 / RFU, IPO11 / Fold change vs veh, IPO11 / RFU, DFFB / Fold change vs veh, DFFB / RFU, FOXP1 / Fold change vs veh, FOXP1 / RFU, CARD8 / Fold change vs veh, CARD8 / RFU, STRN3 / Fold change vs veh, STRN3 / RFU, ADK / Fold change vs veh, ADK / RFU, RASSF2 / Fold change vs veh, RASSF2 / RFU, WIPF1 / Fold change vs veh, WIPF1 / RFU, LARP1B / Fold change vs veh, LARP1B / RFU, RASA1 / Fold change vs veh, RASA1 / RFU, RB1 / Fold change vs veh, RB1 / RFU, PPFIA1 / Fold change vs veh, PPFIA1 / RFU, MAT2A / Fold change vs veh, MAT2A / RFU, CCT5 / Fold change vs veh, CCT5 / RFU, WDR92 / Fold change vs veh, WDR92 / RFU, CUX1 / Fold change vs veh, CUX1 / RFU, TTC7A / Fold change vs veh, TTC7A / RFU, TMEM135 / Fold change vs veh, TMEM135 / RFU, DEPTOR / Fold change vs veh, DEPTOR / RFU, CPM / Fold change vs veh, CPM / RFU, DNAJB6 / Fold change vs veh, DNAJB6 / RFU, CACNA2D3 / Fold change vs veh, CACNA2D3 / RFU, DTX4 / Fold change vs veh, DTX4 / RFU, TFCP2 / Fold change vs veh, TFCP2 / RFU, GMCL1 /// GMCL1P1 / Fold change vs veh, GMCL1 /// GMCL1P1 / RFU, AEBP2 / Fold change vs veh, AEBP2 / RFU, SNHG1 /// SNORD22 /// SNORD25 /// SNORD26 /// SNORD27 /// SNORD28 /// SNORD29 /// SNORD31 / Fold change vs veh, SNHG1 /// SNORD22 /// SNORD25 /// SNORD26 /// SNORD27 /// SNORD28 /// SNORD29 /// SNORD31 / Fold change (Aza/veh), C12orf56 (ProbeSet 11735607_a_at) / Fold change (ACY-1035/veh), C12orf56 (ProbeSet 11735607_a_at) / Fold change (Aza/veh), FGFR1OP (ProbeSet 11751329_s_at) / Fold change (ACY-1035/veh), FGFR1OP (ProbeSet 11751329_s_at) / Fold change (Aza/veh), VPS36 (ProbeSet 11739960_a_at) / Fold change (ACY-1035/veh), VPS36 (ProbeSet 11739960_a_at) / RFU SYPL1 (11715823_x_at) / Fold change /veh SYPL1 (11715823_x_at) / RFU IGFBP7 (11715501_s_at) / Fold change /veh IGFBP7 (11715501_s_at) / RFU REEP3 (11722064_at) / Fold change /veh REEP3 (11722064_at) / RFU IGLL1 (11728026_x_at) / Fold change /veh IGLL1 (11728026_x_at): dose or concentration left out as unconfirmed
Details: ProbeSet 11723141_at; LIST B

`Nc1ncn([C@@H]2O[C@H](CO)[C@@H](O)[C@H]2O)c(=O)n1` [azacitidine] was tested, and the “RFU, ZBTB11” value was 125.26 RFU.
